In patent US20060211749A1, “Treatment with omega-3 fatty acids and PPAR agonist and/or antagonist and a combination product thereof” (priority 2004, published 2006):

Experiment: Case of a subject with familial hypertriglyceridemia: blood lipid levels on fenofibrate alone, then on concomitant Omacor and fenofibrate
Type: in vivo, human
Design: HDL-Cholesterol level / Non-HDL-Cholesterol level: unit not given here
[1] = same subject, fenofibrate alone vs one month of concomitant therapy

SMILES: CC(C)OC(=O)C(C)(C)Oc1ccc(C(=O)c2ccc(Cl)cc2)cc1 [Fenofibrate, 2-[4-(4-chlorobenzoyl)phenoxy]-2-methyl-propanoic acid, 1-methylethyl ester]
- TG level (person, fenofibrate (Antara 130 mg QD) about 2 weeks, then plus Omacor 4 grams/day QD for one month): 749 mg/dL
- HDL-Cholesterol level [1]: 28
- Non-HDL-Cholesterol level [1]: 252
- Total-Cholesterol level [1]: 280 mg/dL
